Laboratory results reported in patent US9492454B2, “Use of pemirolast in the treatment of acute asthma” (RSPR PHARMA AB, priority 2014, dated 2016).
“Also recorded” adds a separate entry of the source. Read-outs that look alike come from different tables or passages of the source.

Legend:
[1] = design: species or system Beagles (dog); conditions: dog, in vivo
From the text: There were no major differences in kinetics between males and females.

hERG potassium channel = hERG potassium channel (Homo sapiens, UniProt Q12809)
hERG potassium channel, sequence (Q12809 whole entry): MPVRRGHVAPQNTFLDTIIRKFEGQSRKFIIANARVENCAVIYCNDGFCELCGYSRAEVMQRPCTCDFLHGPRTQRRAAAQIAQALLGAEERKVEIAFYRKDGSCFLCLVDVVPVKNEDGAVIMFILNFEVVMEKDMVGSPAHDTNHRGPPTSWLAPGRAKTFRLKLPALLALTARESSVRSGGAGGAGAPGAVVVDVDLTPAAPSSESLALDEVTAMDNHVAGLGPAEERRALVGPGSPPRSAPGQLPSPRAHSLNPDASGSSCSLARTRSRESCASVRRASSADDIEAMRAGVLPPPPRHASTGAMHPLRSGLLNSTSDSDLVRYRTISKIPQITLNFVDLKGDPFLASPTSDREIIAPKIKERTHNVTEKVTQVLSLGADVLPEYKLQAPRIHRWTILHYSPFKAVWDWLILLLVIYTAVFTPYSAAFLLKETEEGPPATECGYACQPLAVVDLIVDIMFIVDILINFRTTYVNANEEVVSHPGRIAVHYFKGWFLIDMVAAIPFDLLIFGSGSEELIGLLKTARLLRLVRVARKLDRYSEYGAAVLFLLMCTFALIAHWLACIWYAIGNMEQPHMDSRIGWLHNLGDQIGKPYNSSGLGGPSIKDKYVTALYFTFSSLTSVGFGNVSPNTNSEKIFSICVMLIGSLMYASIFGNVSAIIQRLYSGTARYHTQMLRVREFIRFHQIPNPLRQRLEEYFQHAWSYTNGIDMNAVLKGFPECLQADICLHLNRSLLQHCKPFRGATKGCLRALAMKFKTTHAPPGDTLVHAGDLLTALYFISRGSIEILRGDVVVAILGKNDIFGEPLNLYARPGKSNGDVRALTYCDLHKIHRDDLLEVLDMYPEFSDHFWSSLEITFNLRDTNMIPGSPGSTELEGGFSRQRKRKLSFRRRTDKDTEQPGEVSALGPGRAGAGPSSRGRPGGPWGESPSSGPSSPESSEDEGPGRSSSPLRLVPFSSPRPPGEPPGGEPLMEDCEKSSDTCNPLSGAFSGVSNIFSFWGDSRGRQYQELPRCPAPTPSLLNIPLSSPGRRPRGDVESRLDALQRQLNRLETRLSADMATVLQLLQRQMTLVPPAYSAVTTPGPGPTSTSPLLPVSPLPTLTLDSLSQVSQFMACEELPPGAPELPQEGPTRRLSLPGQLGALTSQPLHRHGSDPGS
Description: This study was performed by PhysioStim, France, a GLP compliant facility.
The effects of pemirolast on hERG currents in HEK-293 cells stably expressing the hERG potassium channel were studied using patch-clamp technique.

prostaglandin D2 = experiment: Urinary excretion of 11β-PGF2α (PGD2 metabolite, mast cell biomarker), EIA; assay type: in vivo, human; conditions: for baseline production of PGD2 in asthmatics without ongoing attacks: n=22-24
Description: A secondary endpoint in the study was to analyse changes in urinary excretion of a metabolite (11β-prostaglandin (PG) F2α) of the lung mast cell mediator/biomarker prostaglandin D2. 11β-PGF2α analysis was performed in unextracted urine samples using a validated enzyme immunoassays (EIA) kit from Cayman Chemical, Ann Arbor, Mich., USA (Item no 516521). Absolute values of the mediators were expressed as nanograms 11β-PGF2α per millimole creatinine.
• a) Withdrawal from trial visit criteria to be checked • b) Urine sampling for 11β-PGF2α analysis • c) Blood sampling for haematology and blood biochemistry • d) Vital signs, physical examination, adverse events and concomitant medication 2) Administration of IMP 3 hours (+/−10 min) before the mannitol challenge 3) Before mannitol challenge: • a) <10 min before: Urine sampling for 11β-PGF2α analysis • b) <10 min before: Blood sampling for analysis of plasma pemirolast concentration 4) Mannitol test 3 hours (+/−10 min) after IMP administration 5) After mannitol challenge: • a) Urine sampling for 11β-PGF2α, 30 minutes after mannitol challenge • b) Pregnancy test (Visit 4 only, in addition to prior to enrolment) • e) Recording of concomitant medication just before sending the patient home • f) Reporting of AEs just before sending the subject home
Prostaglandin D2 (PGD2) is released from mast cells (e.g. in the lung) and is known as a mediator of asthmatic bronchoconstriction (Hardy et al, N. Engl. J. Med., 311, 209 (1984)). Urinary levels of the PGD2 metabolite 11β-PGF2α increase acutely during asthmatic attacks, including those induced by mannitol inhalation (Brannan et al, Eur. Respir. J., 22, 491 (2003)). This PGD2 metabolite is therefore used as a biomarker for mast cell activation in asthmatics.

[2] = Later pharmacokinetic studies in healthy volunteers (multiple doses); assay type: in vivo, human; conditions: 80, 200 and 320 mg b.i.d. for three and a half days
[3] = Single and multiple-dose open safety, tolerability and pharmacokinetic study of pemirolast potassium tablets, with linear Cmax extrapolation; assay type: in vivo, human; conditions: linear extrapolation from 42.5 mg multiple dose
Description: This study comprised 18 healthy male subjects, 18-45 years of age, and was a single and multiple-dose, open study assessing the safety and tolerability of pemirolast potassium tablets (10 mg, Ulgixal™ tablets) with the doses 10, 30 and 50 mg (containing 8.5, 25.5 and 42.5 mg pemirolast free acid, respectively) b.i.d. (6 subjects in each dose group). The subjects received a single dose on the first day, then b.i.d. for three days and a single dose on the fifth day. The study was performed at the Berzelius Clinical Research Center AB in Linköping, Sweden. All laboratory pharmacokinetic analyses were performed by Quintiles AB, Uppsala, Sweden. Pharmacokinetic calculations were performed by Pharm Assist Sweden AB, Uppsala, Sweden. Mean Cmax data after multiple dosing are shown in and Table 1, and mean plasma concentrations over time on Day 5 are shown in FIG. 1. Based on these clinical data, Cmax predictions were made (assumption: Linear pharmacokinetics when extrapolating to higher dose levels) and are presented in Table 2.

human bronchial tissue = experiment: Bronchodilatory effect on pre-contracted isolated human bronchi (myograph, isometric tension); assay type: cell-based; conditions: for effect on bronchoconstriction induced by carbachol: carbachol 3 μM; for effect on bronchoconstriction induced by histamine: histamine 1 μM
[4] = tested on: isolated guinea pig trachea; conditions: trachea pre-constricted with acetylcholine, histamine, serotonin and barium chloride; cited from earlier work
[5] = tested on: antigen- and PAF-induced bronchoconstriction; conditions: pre-administration, guinea pigs in vivo; cited from earlier work
[6] = tested on: asthma patients challenged with mannitol inhalation; experiment: Clinical trial: mannitol challenge test in asthma patients (PD15, FEV1, safety); assay type: in vivo, human; conditions: for long-term prophylactic effect on mannitol-induced asthma (mannitol PD15 at placebo visit): n=4
Description: This study comprised male and female asthma patients (18 to 46 years of age) with a positive asthma test (as determined by a mannitol challenge test (vide infra) performed within 15 days prior to enrolment at the first screening visit, Visit 1).
It was a double-blind, randomized, placebo-controlled, cross-over trial assessing the efficacy of orally administered single doses of placebo and 40 mg and 400 mg of pemirolast (immediate release tablets containing pemirolast sodium hemihydrate, as well as microcrystalline cellulose, mannitol, copovidone fine, croscarmellose sodium, anhydrous colloidal silica and magnesium stearate) in patients challenged with mannitol inhalation as described below.
The patients were exposed to the different treatments at three separate hospital visits at least 2 (mean 6.8, median 6) days apart. The data reported in FIGS. 5 and 6 below represent the patients that received placebo treatment at the first visit (n=8) or placebo at the second visit (after 40 mg at the first visit (n=4) or after 400 mg at the first visit (n=4)).
All doses were administered 3 hours before initiation of the mannitol challenge test to ensure peak plasma concentrations of pemirolast when the mannitol challenge was performed (blood samples for analysing plasma concentrations of pemirolast were collected 3 hours after drug administration).
There were 5 visits during the trial: A screening visit (Visit 1, within 15 days before Visit 2), three visits for treatment with Investigational Medicinal Products (IMP; pemirolast 40 or 400 mg, or placebo) (Visit 2-4, spaced at least 2 days apart), and a final follow-up visit by telephone (Visit 5, at least 2, but less than 4 days after Visit 4 and within 30 days of Visit 2).
The primary endpoint in the study was the Provocation Dose (PD) of mannitol resulting in a 15% fall in Forced Expiratory Volume during 1 second (FEV1; values given in Litres (L)) (PD15 for mannitol), which is recognised by regulatory authorities as an acceptable method to evaluate potential efficacy of asthma drugs (European Medicines Agency. Note for Guidance on Clinical Investigation of Medicinal Products for Treatment of Asthma, 2013).
The mannitol challenge test (Aridol®, Pharmaxis Ltd, Frenchs Forest, Sydney Australia) was performed as follows: application of nose clip and challenge with 0 (empty capsule acting as placebo), 5, 10, 20, 40, 80, 160, 160, 160 and 160 mg of mannitol via the Halermatic (the 80 and 160 mg doses were given as multiple doses of 40 mg capsules). After inhalation, subjects were instructed to hold their breath for 5 seconds.
At least 2 repeatable FEV1 manoeuvres were performed 60 seconds after each dose and the highest FEV1 was used in the calculation. […]

[7] = twice daily 50 mg doses in humans; cited from earlier work
isolated tracheal muscle = conditions: isolated guinea pig tracheal muscle, cited from earlier work

Q: For Cc1cccn2c(=O)c(-c3nnn[nH]3)cnc12 [pemirolast potassium], which “safe chronic dose in dogs” value [1] is on record?
A: 75 mg/kg daily

Q: What about the “decrease of hERG tail current amplitude” value (hERG potassium channel; 2.7 μg/mL) of the same compound?
A: 5.4%

Q: What about the “decrease of hERG tail current amplitude” value (hERG potassium channel; 8 μg/mL) of the same compound?
A: 10.2%

Q: And the “decrease of hERG tail current amplitude” value (hERG potassium channel; 26.6 μg/mL)?
A: 14.1%

Q: What about the “decrease of hERG tail current amplitude” value (hERG potassium channel; 79.9 μg/mL) of the same compound?
A: 19.0%

Q: For Cc1cccn2c(=O)c(-c3nnn[nH]3)cnc12 [pemirolast], which “baseline production of PGD2 in asthmatics without ongoing attacks” value (prostaglandin D2; 3 hours after administration of 40 mg) is on record?
A: not

Q: What about the “baseline production of PGD2 in asthmatics without ongoing attacks” value (prostaglandin D2; 3 hours after administration of 400 mg) of the same compound?
A: significantly reduced

Q: And the “urinary levels of the PGD2 biomarker (11β-PGF2α), 400 mg versus 40 mg previous treatment” value (prostaglandin D2; patients treated at least 3 days before with 40 mg or 400 mg, 4+4 patients)?
A: did not differ

Q: What about the safety and tolerability [2] of the same compound?
A: safe and well-tolerated

Q: And the “Predicted Cmax” value ([3]; predicted for 125 mg)?
A: 10070 ng/mL

Q: And the “Predicted Cmax” value ([3]; predicted for 200 mg)?
A: 16120 ng/mL

Q: What about the “Predicted Cmax” value ([3]; predicted for 400 mg) of the same compound?
A: 32230 ng/mL

Q: What about the “effect on bronchoconstriction induced by U-46619” value (human bronchial tissue; 10 μg/mL pemirolast, 100 nM U-46619, n=2) of the same compound?
A: partially reversed

Q: What about the “effect on bronchoconstriction induced by potassium chloride” value (human bronchial tissue; 10 μg/mL pemirolast, KCl 30 mM, n=2) of the same compound?
A: no effect

Q: What about the “effect on bronchoconstriction induced by carbachol” value (human bronchial tissue; 10 μg/mL pemirolast, n=4) of the same compound?
A: no effect

Q: And the “effect on bronchoconstriction induced by histamine” value (human bronchial tissue; 10 μg/mL pemirolast, n=3)?
A: no effect

Q: What about the “effect on bronchoconstriction induced by leukotriene D4” value (human bronchial tissue; 10 μg/mL pemirolast, leukotriene D4 1 nM, n=3) of the same compound?
A: no effect

Q: And the “reversal of PGF2α-induced bronchoconstriction (force)” value (human bronchial tissue; 10 μg/ml pemirolast, PGF2α 3 μM pre-contraction, within 15 min, n=4, vehicle 6.8±3.1%)?
A: 21.5±4.4%

Q: And the “reduction of PGF2α-induced bronchoconstriction (force)” value (human bronchial tissue; 110 μg/mL pemirolast (cumulative), PGF2α 3 μM pre-contraction, within 40 min, n=4, vehicle 18.6±4.9%)?
A: 72.0±12.6%

Q: What about the “effect on bronchoconstriction induced by U-46619” value (human bronchial tissue; 110 μg/mL pemirolast, 100 nM U-46619) of the same compound?
A: partial reversal

Q: What about the “effect on the response to KCl” value (human bronchial tissue; 110 μg/mL pemirolast, KCl 30 mM) of the same compound?
A: little effect

Q: And the “effect on bronchoconstriction induced by carbachol” value (human bronchial tissue; 110 μg/mL pemirolast)?
A: partial reversal

Q: And the “effect on bronchoconstriction induced by histamine” value (human bronchial tissue; 110 μg/mL pemirolast)?
A: partial reversal

Q: What about the “effect on the response to leukotriene D4” value (human bronchial tissue; 110 μg/mL pemirolast, leukotriene D4 1 nM) of the same compound?
A: little effect

Q: What about the “potency relative to theophylline” value [4] of the same compound?
A: one seventh

Q: And the PAF-induced bronchoconstriction [5]?
A: inhibited

Q: And the antigen-induced bronchoconstriction [5]?
A: inhibited

Q: And the “mannitol PD15” value ([6]; 3 hour pre-treatment, oral single dose (pemirolast sodium hemihydrate tablets), asthma patients)?
A: increased

Q: And the “long-term prophylactic effect on mannitol-induced asthma (mannitol PD15 at placebo visit)” value ([6]; placebo treatment preceded by 40 mg dose p.o.)?
A: not seen

Q: What about the “long-term prophylactic effect on mannitol-induced asthma (mannitol PD15 at placebo visit)” value ([6]; single 400 mg dose p.o. given at least 3 days before placebo/mannitol) of the same compound?
A: resulted in a prophylactic effect; also recorded: tolerated a much higher dose of mannitol

Q: What about the “adverse events, vital signs, physical examination, haematology and blood biochemistry” value ([6]; single oral doses 40 mg and 400 mg, asthma patients) of the same compound?
A: no serious adverse events

Q: What about the “direct bronchodilator activity when used clinically” value [7] of the same compound?
A: no direct bronchodilator activity

Q: And the effect on bronchoconstriction (isolated tracheal muscle; much higher concentrations than 10 μg/mL)?
A: some effect

Q: What about the “effect on bronchoconstriction induced by PGF2α” value (isolated tracheal muscle; pre-treatment at 10 μg/mL) of the same compound?
A: no effect

Q: And the “effect on bronchoconstriction induced by leukotriene D4” value (isolated tracheal muscle; pre-treatment at 10 μg/mL)?
A: no effect
